Assay results reported in paper PMC2232895 (The Journal of General Physiology, 2000).

Target: T1, bovine rod cGMP-gated channel alpha subunit (retinal CNG channel) (Bos taurus, UniProt Q00194)
T1 sequence (Q00194 1-690): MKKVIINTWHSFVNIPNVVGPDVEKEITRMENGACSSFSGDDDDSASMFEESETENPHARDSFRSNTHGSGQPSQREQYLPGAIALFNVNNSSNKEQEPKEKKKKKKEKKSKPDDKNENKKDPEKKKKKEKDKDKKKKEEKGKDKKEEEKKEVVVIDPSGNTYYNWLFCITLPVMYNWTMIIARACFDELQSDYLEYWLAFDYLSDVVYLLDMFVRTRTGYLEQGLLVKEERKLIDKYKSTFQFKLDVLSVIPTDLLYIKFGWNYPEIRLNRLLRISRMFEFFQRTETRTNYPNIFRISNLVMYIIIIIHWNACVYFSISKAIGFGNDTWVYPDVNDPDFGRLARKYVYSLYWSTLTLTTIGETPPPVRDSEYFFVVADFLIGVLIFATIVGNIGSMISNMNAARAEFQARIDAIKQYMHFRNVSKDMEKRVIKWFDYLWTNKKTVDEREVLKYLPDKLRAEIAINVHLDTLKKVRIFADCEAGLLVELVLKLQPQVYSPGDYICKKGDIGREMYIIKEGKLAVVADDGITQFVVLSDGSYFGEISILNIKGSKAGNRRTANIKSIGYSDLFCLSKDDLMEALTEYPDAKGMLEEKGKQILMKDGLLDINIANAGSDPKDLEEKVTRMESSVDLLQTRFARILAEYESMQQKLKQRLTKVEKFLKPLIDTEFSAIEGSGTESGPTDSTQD
Format: cell-based

- Kd: 510 ± 40 nM
Structure (SMILES): NCCCNCCCCNCCCN [spermine]
